Measurements reported in patent US8741330B2, “Transluminal drug delivery methods and devices” (priority 2006, dated 2014).
Where a name gives a salt, the structure may show the parent alone.

Tests used:
[1] = PDR 1997 p. 564; cited from earlier work
[2] = Blood pressure / hemodynamic monitoring after urethral suppository (Example 1); conditions: rabbit, urethral suppository approx. 100 mg lidocaine
[3] = 5 and 10 ml of water

SMILES	maximum recommended adult dose [1] [mg/kg]	hemodynamic changes [2]	effect of fluid volume on pH of lidocaine/sodium bicarbonate [3]
CCN(CC)CC(=O)Nc1c(C)cccc1C [lidocaine hydrochloride]	4.5		
CCN(CC)CC(=O)Nc1c(C)cccc1C [lidocaine]		No significant hemodynamic changes	does not appear to have a major effect
